Legend:
LU99 xenograft tumors [1] = assay: In vivo combination study (LU99 model), Example 4; set-up: species or system female nu/nu mice; conditions: MRTX1719 100 mg/kg PO QD, A-1331852 25 mg/kg PO BID, alone or combined
Text: (§1) Immunodeficient female nu/nu mice were implanted with 5×10^6 LU99 cancer cells in 50% Matrigel. Tumor volume measurements were collected using calipers and determined utilizing the formula 0.5×L×W^2 in which L refers to length and W refers to width of each tumor. When tumors reached approximately 125-150 mm^3, animals were randomized to receive A) vehicle, B) a PRMT5 inhibitor, C) navitoclax (ABT-263), D) venetoclax (ABT-199), E) A-1331852, F) the PRMT5 inhibitor and navitoclax, F) the PRMT5 inhibitor and venetoclax, or G) the PRMT5 inhibitor and A-1331852 all administered orally (PO) with the indicated dose and schedule for 20-34 days. Tumor volume was measured twice a week (n=5/treatment group). Average tumor volume and standard error of the mean was calculated and plotted at each study day using GraphPad Prism.
Example 4 was carried out according to the in vivo study procedure described above in Example 1.
(§2) The PRMT5 inhibitor was MRTX1719 administered at 100 mg/kg once a day (QD). MRTX1719 is (2M)-2-(4-(4-(aminomethyl)-1-oxo-1,2-dihydrophthalazin-6-yl)-1-methyl-1H-pyrazol-5-yl)-4-chloro-6-cyclopropoxy-3-fluorobenzonitrile, disclosed as Example 16-8 at p. 307 of the international patent publication No. WO 2021/050915 A1, published 18 Mar. 2021, incorporated by reference in its entirety. The BCL-2 family inhibitor, A-1331852 was administered at 25 mg/kg twice a day (BID) and synthesized at Wuxi AppTec (Wuhan, China).

LU99 xenograft tumors [2] = assay: In vivo combination study (LU99 model), Example 1; set-up: species or system female nu/nu mice; conditions: MRTX1719, ABT-263, ABT-199 each 100 mg/kg PO QD, alone or combined
Text: as §1
as §2, with “entirety.” for “entirety. The BCL-2 family inhibitor, A-1331852 was administered at 25 mg/kg twice a day (BID) and synthesized at Wuxi AppTec (Wuhan, China).”
The BCL-2 family inhibitors used in this example, ABT-199 (venetoclax) and ABT-263 (navitoclax), were administered at 100 mg/kg once a day (QD) and supplied by Selleck Chemicals (Houston, TX).

Mero84 = assay: In vitro combination synergy, Mero84 (Cell-Titer Glo); format: cell-based; conditions: combined with exemplary PRMT5 inhibitor, 120 h, sum of Loewe, Bliss, HSA and ZIP scores
Method: (§3) A panel of MTAP-deleted cancer cell lines was assembled to determine whether combining BCL-2 family inhibitors with exemplary PRMT5 inhibitors disclosed herein results in synergistic activity.
(§4) [Assays for determining the synergy score for the pairwise combinations for each cell line were performed in triplicate. 384 or 96-well plates plus additional wells of a separate 384 or 96-well control plate for determining baseline luminescence were seeded with cells of a particular MTAP-deleted cell line in a suitable growth medium for that cell line, e.g., RPMI 1640 medium supplemented with 10% FBS and any cell line specific reagents needed for growth. The plates were incubated overnight at 37 °C in a 5% CO2 atmosphere.
(§5) To each of the designated baseline wells, Cell-Titer Glo reagent (CTG; Promega Corporation) was added to each well and the plates were incubated for 20 min shaking at room temperature. Baseline luminescence was quantitated using a BMG ClarioStar multimode plate reader according to the manufacturer's instructions.
(§6) A series of 1000× drug dilutions in 100% DMSO was prepared that includes a 9-point single agent 3-fold dilution of the exemplary PRMT5 inhibitor (of the type described in WO2021/050915) with a top dose of 3000 nM (and a 6-point single agent 5-fold dilution of the BCL-2 family inhibitor with a top dose of 3000 nM as reference standards.
(§7) A 10× intermediate dosing plate was prepared in serum free medium that contains arrayed single agent dilutions of exemplary PRMT5 inhibitor (of the type described in WO2021/050915) and or the BCL-2 family inhibitor. In addition, a matrix of 54 dilution combinations of exemplary PRMT5 inhibitor (of the type described in WO2021/050915) and the BCL-2 family inhibitor was prepared as test samples.
(§8) To each corresponding well of the 384-well plates seeded with the appropriate cell line above, 10× single agent and the 54 combinations of the dose matrix was added and the plates were incubated for 120 hours at 37 °C in 5% CO2 atmosphere. Cell-Titer Glo reagent (CTG) was added to each test well, the plates were incubated for 20 min shaking at room temperature, and luminescence was quantitated using a BMG ClarioStar multimode plate reader according to the manufacturer's instructions. To normalize test samples, the determined baseline luminescence was subtracted from each test sample prior to analysis and mean values are calculated from replicate samples.
(§9) The output of the data from each mathematical model is the assignment of a relative synergy score. The data reported in Table 6 are the aggregate sum of the Loewe additivity, Bliss independence, Highest Single Agent and ZIP synergy scores (“Composite Synergy Score”).

Miapaca2 = assay: In vitro combination synergy, Miapaca2 (Cell-Titer Glo); format: cell-based; conditions: combined with exemplary PRMT5 inhibitor, 120 h, sum of Loewe, Bliss, HSA and ZIP scores
Method: as §3, §4, §5, §6, §7, §8, §9

Mero83 = assay: In vitro combination synergy, Mero83 (Cell-Titer Glo); format: cell-based; conditions: combined with exemplary PRMT5 inhibitor, 120 h, sum of Loewe, Bliss, HSA and ZIP scores
Method: as §3, §4, §5, §6, §7, §8, §9

LU99 = assay: In vitro combination synergy, LU99 (Cell-Titer Glo); format: cell-based; conditions: combined with exemplary PRMT5 inhibitor, 120 h, sum of Loewe, Bliss, HSA and ZIP scores
Method: as §3, §4, §5, §6, §7, §8, §9

SU8686 = assay: In vitro combination synergy, SU8686 (Cell-Titer Glo); format: cell-based; conditions: combined with exemplary PRMT5 inhibitor, 120 h, sum of Loewe, Bliss, HSA and ZIP scores
Method: as §3, §4, §5, §6, §7, §8, §9

Mero14 = assay: In vitro combination synergy, Mero14 (Cell-Titer Glo); format: cell-based; conditions: combined with exemplary PRMT5 inhibitor, 120 h, sum of Loewe, Bliss, HSA and ZIP scores
Method: as §3, §4, §5, §6, §7, §8, §9

SW1573 = assay: In vitro combination synergy, SW1573 (Cell-Titer Glo); format: cell-based; conditions: combined with exemplary PRMT5 inhibitor, 120 h, sum of Loewe, Bliss, HSA and ZIP scores
Method: as §3, §4, §5, §6, §7, §8, §9

A549 = assay: In vitro combination synergy, A549 (Cell-Titer Glo); format: cell-based; conditions: combined with exemplary PRMT5 inhibitor, 120 h, sum of Loewe, Bliss, HSA and ZIP scores
Method: as §3, §4, §5, §6, §7, §8, §9

H2452 = assay: In vitro combination synergy, H2452 (Cell-Titer Glo); format: cell-based; conditions: combined with exemplary PRMT5 inhibitor, 120 h, sum of Loewe, Bliss, HSA and ZIP scores
Method: as §3, §4, §5, §6, §7, §8, §9

HCC4006 = assay: In vitro combination synergy, HCC4006 (Cell-Titer Glo); format: cell-based; conditions: combined with exemplary PRMT5 inhibitor, 120 h, sum of Loewe, Bliss, HSA and ZIP scores
Method: as §3, §4, §5, §6, §7, §8, §9

H2052 = assay: In vitro combination synergy, H2052 (Cell-Titer Glo); format: cell-based; conditions: combined with exemplary PRMT5 inhibitor, 120 h, sum of Loewe, Bliss, HSA and ZIP scores
Method: as §3, §4, §5, §6, §7, §8, §9

H2228 = assay: In vitro combination synergy, H2228 (Cell-Titer Glo); format: cell-based; conditions: combined with exemplary PRMT5 inhibitor, 120 h, sum of Loewe, Bliss, HSA and ZIP scores
Method: as §3, §4, §5, §6, §7, §8, §9

Compound	Average Tumor Volume (LU99 xenograft tumors [1]; day 2) [mm^3]	Average Tumor Volume (LU99 xenograft tumors [1]; day 6) [mm^3]	Average Tumor Volume (LU99 xenograft tumors [1]; day 9) [mm^3]	Average Tumor Volume (LU99 xenograft tumors [1]; day 14) [mm^3]	Average Tumor Volume (LU99 xenograft tumors [1]; day 16) [mm^3]	Average Tumor Volume (LU99 xenograft tumors [1]; day 20) [mm^3]	Average Tumor Volume (LU99 xenograft tumors [1]; day −1) [mm^3]	Average Tumor Volume (LU99 xenograft tumors [2]; day 3) [mm^3]	Average Tumor Volume (LU99 xenograft tumors [2]; day 6) [mm^3]	Average Tumor Volume (LU99 xenograft tumors [2]; day 10) [mm^3]	Average Tumor Volume (LU99 xenograft tumors [2]; day 13) [mm^3]	Average Tumor Volume (LU99 xenograft tumors [2]; day 17) [mm^3]	Average Tumor Volume (LU99 xenograft tumors [2]; day 20) [mm^3]	Average Tumor Volume (LU99 xenograft tumors [2]; day −1) [mm^3]	Composite Synergy Score (Mero84)	Composite Synergy Score (Miapaca2)	Composite Synergy Score (Mero83)	Composite Synergy Score (LU99)	Composite Synergy Score (SU8686)	Composite Synergy Score (Mero14)	other results
Cn1ncc(-c2ccc3c(=O)[nH]nc(CN)c3c2)c1-c1c(F)c(Cl)cc(OC2CC2)c1C#N (atropisomer, axis not shown; (M)) [MRTX1719, (2M)-2-(4-(4-(aminomethyl)-1-oxo-1,2-dihydrophthalazin-6-yl)-1-methyl-1H-pyrazol-5-yl)-4-chloro-6-cyclopropoxy-3-fluorobenzonitrile]	221	229	232	268	296	360	137	215	236	236	260	282	302	153	–	–	–	–	–	–	–
Cc1c(-c2ccc(N3CCc4cccc(C(=O)Nc5nc6ccccc6s5)c4C3)nc2C(=O)O)cnn1CC12CC3CC(CC(C3)C1)C2 [A-1331852]	217	393	547	960	1228	1331	137	–	–	–	–	–	–	–	0	70	11	64	50	28	Composite Synergy Score (SW1573): 50; Composite Synergy Score (A549): 42; Composite Synergy Score (H2452): 42; Composite Synergy Score (HCC4006): 63; Composite Synergy Score (H2052): 12; Composite Synergy Score (H2228): 36
CC1(C)CCC(c2ccc(Cl)cc2)=C(CN2CCN(c3ccc(C(=O)NS(=O)(=O)c4ccc(N[C@H](CCN5CCOCC5)CSc5ccccc5)c(S(=O)(=O)C(F)(F)F)c4)cc3)CC2)C1 [ABT-263, navitoclax]	–	–	–	–	–	–	–	236	359	558	737	1042	1237	153	−4	16	−26	41	12	18	Composite Synergy Score (SW1573): 14; Composite Synergy Score (A549): 23; Composite Synergy Score (H2452): −20; Composite Synergy Score (HCC4006): 23; Composite Synergy Score (H2052): 11; Composite Synergy Score (H2228): 24

From US20260355188A1, “COMBINATION THERAPIES USING PRMT5 INHIBITORS AND BCL-2 FAMILY INHIBITORS FOR THE TREATMENT OF CANCER” (MIRATI THERAPEUTICS, INC., priority 2022, published 2026)
